Measured values: patent US20230286969A1, “AROMATIC SPIRO RING AMIDE DERIVATIVES FOR THE TREATMENT AND PROPHYLAXIS OF HEPATITIS B VIRUS INFECTION” (Hoffmann-La Roche Inc., priority 2020, published 2023)
Where two headings read alike, the source gives them in different places.

Columns and labels:
Format in all cases: cell-based
HBsAg = test: PHH HBV natural infection assay, HBsAg (alphalisa)
Procedure: (§1) Detailed procedures regarding primary human hepatocyte (PHH) HBV natural infection assay are described as below. One tube of frozen PHH (10 million cells) is thawed in 37° C. water bath and then transferred to 20 mL of PHH thawing medium (Sigma, InVitroGRO HT Medium, Cat. S03319) with gently mixing. The cells were then centrifuged at […] for 5 min, the supernatant was discarded and the tube was refilled with 25 mL of PHH plating medium (Sigma, InVitroGRO CP Medium, Cat. S03317). The tube was shaken very gently to re-suspend all cells, and then 50 μl of cells were transferred to each well 384-well collagen I coated plate with appropriate liquid handling equipment, e.g. Integra VIAFLO384 or Agilent Bravo. The cells were then cultured for 24 hours in a cell incubator. For HBV infection, after PHH attachment on the culture plate, the plating medium was removed and replenished with PHH culture medium containing HBV virus. The PHH culture medium was prepared with Dulbecco's Modified Eagle Medium (DMEM)/F12 (1:1 in volume ratio) containing 10% fetal bovine serum (Gibco, Cat. 10099141), 5 ng/mL human epidermal growth factor (Gibco, Cat.PHG0311L), 20 ng/mL dexamethasone (Sigma, Cat.D4902-100 mg), 250 ng/mL human recombinant insulin (Gibco, Cat.41400045) and 100 U/mL penicillin. HBV virus at 200 genome equivalent (GE) per cell with 4% PEG8000 (Sigma, Cat.P1458) containing culture medium were added to the PHH culture medium for infection. The cells were then cultured for 24 hours in cell incubator. Then the cell culture supernatant was removed. The HBV-infected PHH were cultured with sandwich culture method with PHH culture medium containing 1% DMSO and 0.25 mg/mL matrix gel for 72 hours. The supernatant was then refreshed with PHH culture medium containing different concentrations of testing compounds for two times with 72-hour interval. At the end of treatment, the supernatant was collected for viral markers measurements, including HBsAg, HBeAg, HBV DNA and cytotoxicity. HBsAg and HBeAg were detected using alphalisa method using their specific antibodies. For HBV DNA detection, HBV DNA Quantitative Fluorescence Diagnostic Kit (Sansure Biotech Inc.) was used following the manufacture's protocol. Cytotoxicity was determined using Cell Counting Kit-8 (CCK8, Dojindo Molecular Technologies, Inc.).
(§2) The compounds of the present invention were tested for their capacity to inhibit HBsAg and HBeAg as described herein.

[1] = PHH natural infection assay, cytotoxicity (Cell Counting Kit-8); details: human, HBV-infected primary human hepatocytes, CCK8, end of treatment
Procedure: as §1

HBeAg = test: PHH HBV natural infection assay, HBeAg (alphalisa)
Procedure: as §1, §2

[2] = read-out: HBsAg IC50, HBV-infected primary human hepatocytes, supernatant, compound medium refreshed two times with 72-hour interval
[3] = read-out: HbeAg IC50, HBV-infected primary human hepatocytes, supernatant, compound medium refreshed two times with 72-hour interval
[4] = Hepatitis B virus, Hepatocyte, 72 h, read-out: HBsAg IC50, HBV-infected primary human hepatocytes, supernatant, compound medium refreshed two times with 72-hour interval
[5] = Hepatitis B virus, Hepatocyte, 72 h, read-out: HbeAg IC50, HBV-infected primary human hepatocytes, supernatant, compound medium refreshed two times with 72-hour interval

Compound	IC50 (HBsAg; [2])	CC50 at 144 h [1]	IC50 (HBeAg; [3])	IC50 (HBsAg; [4])	IC50 (HBeAg; [5])
[H][C@]1(NC(=O)c2ccc(S(C)(=O)=O)o2)C[C@@]2(C1)C[C@]([H])(c1nc3cc(Cl)ccc3o1)C2 (single isomer, unassigned) [Example 15-a, (Sa)—N-[6-(5-chloro-1,3-benzoxazol-2-yl)spiro[3.3]heptan-2-yl]-5-methylsulfonyl-furan-2-carboxamide]	5.19 µM	84 µM	3.94 µM	–	–
[H][C@]1(NC(=O)c2ccc(S(C)(=O)=O)o2)C[C@]2(C1)C[C@]([H])(c1nc3cc(Cl)ccc3o1)C2 (single isomer, unassigned) [Example 15-b, (Ra)—N-[6-(5-chloro-1,3-benzoxazol-2-yl)spiro[3.3]heptan-2-yl]-5-methylsulfonyl-furan-2-carboxamide]	0.896 µM	35.8 µM	0.694 µM	–	–
O=C(NC1CC2(C1)CC(c1nc3cc(Cl)ccc3o1)C2)c1ccc([S+]([O-])CC2CC2)o1 (single isomer, unassigned) [Example 19-a, N-[6-(5-chloro-1,3-benzoxazol-2-yl)spiro[3.3]heptan-2-yl]-5-(cyclopropylmethylsulfinyl)furan-2-carboxamide]	0.088 µM	> 10 µM	0.067 µM	–	–
NS(=O)(=O)c1ccc(C(=O)NC2CC3(C2)CC(c2nc4cc(Cl)ccc4o2)C3)o1 (single isomer, unassigned) [Example 29-a, N-[6-(5-chloro-1,3-benzoxazol-2-yl)spiro[3.3]heptan-2-yl]-5-sulfamoyl-furan-2-carboxamide]	5.12 µM	> 100 µM	2.28 µM	–	–
O=C(NC1CC2(C1)CC(c1nc3cc(Cl)cnc3o1)C2)c1ccc(S(=O)(=O)C2CC2)o1 (single isomer, unassigned) [Example 49-a, N-[6-(6-chlorooxazolo[5,4-b]pyridin-2-yl)spiro[3.3]heptan-2-yl]-5-cyclopropylsulfonyl-furan-2-carboxamide]	4.17 µM	81.1 µM	4.25 µM	–	–
CS(=N)(=O)c1ccc(C(=O)NC2CC3(C2)CC(c2nc4cc(Cl)ccc4o2)C3)o1 (single isomer, unassigned) [Example 52-a, N-[6-(5-chloro-1,3-benzoxazol-2-yl)spiro[3.3]heptan-2-yl]-5-(methylsulfonimidoyl)furan-2-carboxamide]	4.26 µM	> 100 µM	1.77 µM	–	–
N=S(=O)(c1ccc(C(=O)NC2CC3(C2)CC(c2nc4cc(Cl)cnc4o2)C3)o1)C1CC1 (single isomer, unassigned) [Example 64-a, N-[6-(6-chlorooxazolo[5,4-b]pyridin-2-yl)spiro[3.3]heptan-2-yl]-5-(cyclopropylsulfonimidoyl)furan-2-carboxamide]	8.45 µM	> 10 µM	4.81 µM	–	–
CC(C)C(=O)NS(=O)(=O)c1ccc(C(=O)N[C@H]2CC3(C2)C[C@H](c2nc4cc(Cl)ccc4o2)C3)o1 (single isomer, unassigned) [Example 70, (Sa)—N-[6-(5-chloro-1,3-benzoxazol-2-yl)spiro[3.3]heptan-2-yl]-5-(2-methylpropanoylsulfamoyl)furan-2-carboxamide, or (Ra)—N-[6-(5-chloro-1,3-benzoxazol-2-yl)spiro[3.3]heptan-2-yl]-5-(2-methylpropanoylsulfamoyl)furan-2-carboxamide]	–	> 100 µM	–	0.361 µM	0.376 µM
O=C(N[C@H]1CC2(C1)C[C@H](c1nc3cc(Cl)ccc3o1)C2)c1ccc(S(=O)(=O)NC(=O)C2CC2)o1 (single isomer, unassigned) [Example 71, (Sa)—N-[6-(5-chloro-1,3-benzoxazol-2-yl)spiro[3.3]heptan-2-yl]-5-(cyclopropanecarbonylsulfamoyl)furan-2-carboxamide, or (Ra)—N-[6-(5-chloro-1,3-benzoxazol-2-yl)spiro[3.3]heptan-2-yl]-5-(cyclopropanecarbonylsulfamoyl)furan-2-carboxamide]	–	> 100 µM	–	3.66 µM	3.28 µM
O=C(N[C@H]1CC2(C1)C[C@H](c1nc3cc(Cl)ccc3o1)C2)c1ccc(S(=O)(=O)NC(=O)C2CCC2)o1 (single isomer, unassigned) [Example 72, (Sa)—N-[6-(5-chloro-1,3-benzoxazol-2-yl)spiro[3.3]heptan-2-yl]-5-(cyclobutanecarbonylsulfamoyl)furan-2-carboxamide, or (Ra)—N-[6-(5-chloro-1,3-benzoxazol-2-yl)spiro[3.3]heptan-2-yl]-5-(cyclobutanecarbonylsulfamoyl)furan-2-carboxamide]	–	> 100 µM	–	0.314 µM	0.386 µM
COCC(=O)NS(=O)(=O)c1ccc(C(=O)N[C@H]2CC3(C2)C[C@H](c2nc4cc(Cl)ccc4o2)C3)o1 (single isomer, unassigned) [Example 73, (Sa)—N-[6-(5-chloro-1,3-benzoxazol-2-yl)spiro[3.3]heptan-2-yl]-5-[(2-methoxyacetyl)sulfamoyl]furan-2-carboxamide, or (Ra)—N-[6-(5-chloro-1,3-benzoxazol-2-yl)spiro[3.3]heptan-2-yl]-5-[(2-methoxyacetyl)sulfamoyl]furan-2-carboxamide]	–	> 100 µM	–	0.416 µM	0.256 µM
CCOC(=O)NS(=O)(=O)c1ccc(C(=O)N[C@H]2CC3(C2)C[C@H](c2nc4cc(Cl)ccc4o2)C3)o1 (single isomer, unassigned) [Example 74, (Sa)-ethyl N-[[5-[[6-(5-chloro-1,3-benzoxazol-2-yl)spiro[3.3]heptan-2-yl]carbamoyl]-2-furyl]sulfonyl]carbamate, or (Ra)-ethyl N-[[5-[[6-(5-chloro-1,3-benzoxazol-2-yl)spiro[3.3]heptan-2-yl]carbamoyl]-2-furyl]sulfonyl]carbamate]	–	> 10 µM	–	6.67 µM	5.92 µM
COC(=O)CCC(=O)NS(=O)(=O)c1ccc(C(=O)N[C@H]2CC3(C2)C[C@H](c2nc4cc(Cl)ccc4o2)C3)o1 (single isomer, unassigned) [Example 75, (Sa)-methyl 4-[[5-[[6-(5-chloro-1,3-benzoxazol-2-yl)spiro[3.3]heptan-2-yl]carbamoyl]-2-furyl]sulfonylamino]-4-oxo-butanoate, or (Ra)-methyl 4-[[5-[[6-(5-chloro-1,3-benzoxazol-2-yl)spiro[3.3]heptan-2-yl]carbamoyl]-2-furyl]sulfonylamino]-4-oxo-butanoate]	–	> 10 µM	–	2.49 µM	1.69 µM
O=C(N[C@H]1CC2(C1)C[C@H](c1nc3cc(Cl)ccc3o1)C2)c1ccc(S(=O)(=O)NC(=O)C23CC(C2)C3)o1 (single isomer, unassigned) [Example 76, (Sa)-5-(bicyclo[1.1.1]pentane-1-carbonylsulfamoyl)-N-[6-(5-chloro-1,3-benzoxazol-2-yl)spiro[3.3]heptan-2-yl]furan-2-carboxamide, or (Ra)-5-(bicyclo[1.1.1]pentane-1-carbonylsulfamoyl)-N-[6-(5-chloro-1,3-benzoxazol-2-yl)spiro[3.3]heptan-2-yl]furan-2-carboxamide]	–	> 10 µM	–	2.84 µM	1.99 µM
COCCOCC(=O)NS(=O)(=O)c1ccc(C(=O)N[C@H]2CC3(C2)C[C@H](c2nc4cc(Cl)ccc4o2)C3)o1 (single isomer, unassigned) [Example 78, (Sa)—N-[6-(5-chloro-1,3-benzoxazol-2-yl)spiro[3.3]heptan-2-yl]-5-[[2-(2-methoxyethoxy)acetyl]sulfamoyl]furan-2-carboxamide, or (Ra)—N-[6-(5-chloro-1,3-benzoxazol-2-yl)spiro[3.3]heptan-2-yl]-5-[[2-(2-methoxyethoxy)acetyl]sulfamoyl]furan-2-carboxamide]	–	> 100 µM	–	2.45 µM	0.929 µM
